The text below walks through data of patent publication US8013047B2, “Oligo- and poly-carbonates terminated with silicon containing groups as surface modifiers” (priority 2005, dated 2011).

Series [1] has as its system Staphylococcus aureus ATCC 6538. Description: Adhesion of microbes onto polycarbonate extrusion sheets (microtiterplate immunological assay). It counts as cell-based. The following applies: 5% Tinuvin 1577 alone in polycarbonate sheet; residual adhesion relative to control = 100%; 60 min incubation. The protocol: (§1) A polycarbonate powder [Makrolon 3108 FBL (RTM) from Bayer] is dried in a vacuum oven for eight hours at 120° C. Appropriate amounts of each compound of the formula I is added to the dried polycarbonate powder to obtain formulations containing up to 10% by weight of the compound of the formula I. The formulations are mixed in a Grindo Mix GM 200 and compounded to pellets in a twin-screw extruder (Haake DS16-L/D25 from Thermo Electron Corporation) and further extruded to sheets with a width of 110 mm and thickness of 0.2 mm using a single-screw extruder equipped with a flat die (Collin CR-136/350). The processing temperature is around 280° C. All produced sheets have a transparent visual appearance.
In order to measure the reduced adhesion of microbes onto polymer surfaces the following testing procedure is applied:
The test system is microtiterplate based and is conducted according to the method described in Nature Medicine Vol. 6, No. 8, 1053-1056. Samples equipped with active compounds and untreated control samples are prepared to obtain a same sample size of max. 7×4 mm. […] The microbial cells adhering to the pieces are detected in an immunological assay using specific antibodies against the test strain, which are then detected […]. […]

The nature of series [2]: Contact angle of extrusion tapes, compounds as bulk material or additive (sessile drop, water). The following applies: 5% Tinuvin 1577 in 95% Makrolon 3108 FBL, extrusion tape. It counts as physicochemical. The protocol:
Appropriate amounts of each compound of the formula I are dried in a vacuum oven for eight hours at 120° C. They are extruded in a twin-screw extruder (MiniLab extruder from Thermo Electron Corporation) equipped with a flat die. In this way, tapes are produced with a width of 5 mm and a thickness of around 0.5 mm. The processing temperature is around 280° C. All produced tapes have a transparent visual appearance. The contact angle of the produced tapes are measured with a Dataphysics OCA 30 contact angle device, using the sessile drop method and water as measuring liquid.

Series [3] is described as follows: Contact angle of polycarbonate extrusion sheets (sessile drop, water). It counts as physicochemical. The following applies: 5% Tinuvin 1577 alone in polycarbonate extrusion sheet. As for the experimental part:
as §1
The surface properties were evaluated by measuring the contact angle of the polycarbonate sheets described in Example 16 with a Dataphysics OCA 30 contact angle device, using the sessile drop method and water as measuring liquid.

As for `CCCCCCOc1ccc(-c2nc(-c3ccccc3)nc(-c3ccccc3)n2)c(O)c1` [Tinuvin 1577], in series [1], the “Adhesion of Staphylococcus aureus ATCC 6538 on polycarbonate in %” value was determined as 104%. Also, the “Contact angle (°)” value in series [2] and in series [3] was 86 ° each time.
